The results in this text go back to US20060147992A1, “Method for detection of bioactive peptides” (priority 2002, published 2006).

The assay deals with platelets. Nature of the assay: luminometric determination of collagen-induced ATP release from platelets. The following applies: platelet rich plasma, 2 μg/ml collagen, RGDS 30 μM; p<0.002 versus collagen alone. It counts as cell-based. From the text: Miniaturised (96 well format) high-throughput screening assays capable of assessing platelet activation that are suitable for screening potential anti-thrombotic agents have been developed. The primary assay is based on the phenomenon that platelet activation results in a substantial release of ATP from dense granules. Released ATP is then rapidly quantitated in a plate reader using bioluminescence and is proportional to the extent of platelet activation.
Platelet rich plasma was stimulated by automated injection of 2 μg/ml collagen in the presence or absence of commercially available RGDS (30 μM). Relative light output was then measured automatically in a BMG Fluostar plate reader.
Fibrinogen was digested with either Lys-C (A) or trypsin (B) prior to fractionation as described in FIGS. 2 and 3.

Consider RGDS, for which the “inhibition of collagen-induced ATP release” value came out at 30%.
